One compound from patent US20220395487A1, “RIG-I INNATE IMMUNE RECEPTOR ANTAGONISTS AND METHODS OF USING SAME” (YALE UNIVERSITY, priority 2019, published 2022) can be followed below.

One may read the IC50 as the concentration at which inhibition is half-maximal.

Assay [1] concerns the target T1, RIG-I (Homo sapiens, UniProt O95786).
T1 sequence (O95786 1-925): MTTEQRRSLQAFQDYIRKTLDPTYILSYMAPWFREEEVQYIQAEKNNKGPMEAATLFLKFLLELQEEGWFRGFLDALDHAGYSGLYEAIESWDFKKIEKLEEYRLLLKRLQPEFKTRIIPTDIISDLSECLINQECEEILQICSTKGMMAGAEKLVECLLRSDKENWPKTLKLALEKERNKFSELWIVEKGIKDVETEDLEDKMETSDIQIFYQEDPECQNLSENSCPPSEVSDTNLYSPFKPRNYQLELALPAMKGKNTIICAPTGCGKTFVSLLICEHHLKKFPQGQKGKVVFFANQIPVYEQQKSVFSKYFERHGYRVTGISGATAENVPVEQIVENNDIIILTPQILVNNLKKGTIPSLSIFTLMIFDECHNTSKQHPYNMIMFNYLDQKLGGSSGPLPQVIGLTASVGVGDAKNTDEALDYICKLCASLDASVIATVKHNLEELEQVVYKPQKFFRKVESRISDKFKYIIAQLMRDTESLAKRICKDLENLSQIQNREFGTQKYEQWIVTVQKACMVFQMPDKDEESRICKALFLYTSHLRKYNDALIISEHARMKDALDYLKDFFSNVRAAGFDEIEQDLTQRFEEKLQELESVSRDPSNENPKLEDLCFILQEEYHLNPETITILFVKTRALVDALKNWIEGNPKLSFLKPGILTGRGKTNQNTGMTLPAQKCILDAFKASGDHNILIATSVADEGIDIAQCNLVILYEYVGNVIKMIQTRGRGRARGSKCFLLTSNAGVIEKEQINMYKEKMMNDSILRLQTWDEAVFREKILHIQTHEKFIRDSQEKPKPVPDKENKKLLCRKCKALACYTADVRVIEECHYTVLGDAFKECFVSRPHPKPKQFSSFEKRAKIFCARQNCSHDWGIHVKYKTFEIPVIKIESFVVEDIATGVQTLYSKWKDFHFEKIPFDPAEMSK
The experiment in a line: IFN-β/Firefly dual-luciferase reporter assay in HEK 293T cells transfected with hRIG-I. In kind it is cell-based. The conditions noted are these: HEK293T cells, SLR14 challenge. How it is done: Two different assays were used for evaluating RIG-I inhibition in cells. In the first assay, HEK 293T cells were used to test the influence of compounds on RIG-I signaling activity while simultaneously reporting on relative toxicity. In this case, inhibitor compounds were introduced via growth media replacement rather than by direct addition to cell plates. Specifically, HEK 293T cells (which express RIG-I only under the control of a transfected plasmid) were grown and maintained in T75 flasks containing Dulbecco's Modified Eagle Medium, DMEM (Life Technologies) supplemented with 10% heat-inactivated fetal bovine serum (Hyclone) and non-essential amino acids (Life Technologies). For the IFN-β induction assays, 0.5 ml of cells at 65,000 cells/ml was placed (seeded) in 24-well plates. After 24 h, each well of cells was transfected with 5 ng WT pUNO-hRIG-I (Invivogen), 6 ng pRL-TK constitutive Renilla luciferase reporter plasmid (Promega) and 150 ng of an IFN-β/Firefly luciferase reporter plasmid using the Lipofectamine 2000 transfection reagent (Life Technologies) following the manufacturer's protocol. Protein expression was allowed to proceed for 24 hours. In parallel, a six-point dilution series of each compound of interest was made in a DMSO vehicle and then diluted further into DMEM such that a constant DMSO concentration of 1% is maintained over the entire drug dilution. The DMEM growth media was aspirated from each well of cells and replaced with DMEM that contains the drug. After 30 minutes, the cells were challenged by transfection with 1 μg of the synthetic stem-loop RNA (SLR14) in Lipofectamine 2000. After 5-6 hours, cells were harvested for luminescence analysis in the following manner: Growth media was aspirated from each well, and 100 μl of passive lysis buffer (Promega) was added. Lysis proceeded for 15 min at room temperature. Lysates were clarified by centrifugation, and 20 μl samples of the supernatant were transferred to a 96-well assay plate for analysis using the Dual-Luciferase Reporter Assay System (Promega). Luminescence was measured using a Biotek Synergy H1 plate reader. The resulting Firefly luciferase activity (i.e. the induction of IFN-0) was normalized to the activity of the constitutively expressed Renilla luciferase to account for differences in confluency, transfection efficiency and cell viability across sample wells.
In general terms: A reporter such as luciferase makes a cellular process visible.

Assay [2] has as its target T1, RIG-I. The assay can be described thus: NADH-coupled ATPase assay. The format is biochemical. Details: The native, full-length protein was expressed and purified using methods adapted from published protocols; SUMO (pET-SUMO vector; captured on Ni-NTA) (N, cleaved yes); made in house; host or cells: Rosetta II(DE3) Escherichia coli. On the procedure: In this case, RIG-I was activated by a well-defined synthetic RNA hairpin duplex (SLR10-OH), which was added to a final concentration of 250 nM. A coupled assay mixture consisting of 1 mM NADH, 100 U/ml lactic dehydrogenase, 500 U/ml pyruvate kinase, 2.5 mM phosphoenol pyruvic acid was added to the sample. A 12-point serial dilution of the compound of interest was added in a DMSO vehicle such that DMSO concentrations were kept at a constant 2% over the entire drug dilution. The final concentration ranges for drug dilutions varied from compound to compound based on the potency of the small molecule in question. The dilutions covered ranges from 0 to as high as 100 μM (see association figures). Samples were incubated for at least 1 hour at RT. Reactions were initiated by the addition of a 1:1 ATP/MgCl2 mix to a final concentration of 5 mM.
The rate of ATP hydrolysis was determined indirectly by monitoring the conversion of NADH to NAD^+ that results in a loss of sample absorbance at 340 nm. Absorbance was measured over a 20 min time course using a sweeping read at 10 second intervals and a gain setting of 120 on a Biotek Synergy H1 Plate Reader. Mean kobs values were extrapolated for each time course and plotted against drug concentration, then fit to Eq. (1) to determine IC50 values. Each point was a based on two trials of three biological replicates with error bars representing the Standard deviation.

As to `CCC1(CC)C(=O)N=C2C1=C(OCc1ccccc1)C(=O)c1ccccc12` [RIG012, 4-Benzyloxy-3,3-diethyl-2H,3H,5H-benzo[g]indole-2,5-dione], in assay [1], the “inhibition of RIG-I signaling / IFN induction, result in words” value is on record as “potent, dose-dependent inhibition of RIG-I signaling”. The half-maximal inhibitory concentration (IC50) came to 1250 nM in assay [1] (compound in growth medium, read-out: IC50, inhibition of RIG-I signaling (IFN induction luciferase)) and 710 ± 20 nM in assay [2] (NADH-coupled ATPase assay, SLR10-OH activated, mean ± standard deviation, 3 measurements, read-out: IC50). In assay [2] (SAR discussion of Table 1 compounds), the “RIG-I ATPase inhibition, result in words” value was “nanomolar IC50 values”.
